For one series, the target named is Insulin receptor (Homo sapiens, UniProt P06213). Nature of the series: Inhibition of IR.
The target of series [1] is ALK tyrosine kinase receptor (Homo sapiens, UniProt Q9UM73). The series is described as follows: Inhibition of human recombinant ALK assessed as phosphorylated product using PLC-gamma/GST substrate by modified ELISA method.
For series [2], the target named is NPM/ALK (Nucleophosmin/ALK tyrosine kinase receptor) (Homo sapiens, UniProt Q9UM73). Nature of the series: Inhibition of NPM/ALK phosphorylation in human KARPAS299 cells by ELISA. Type of series: cell-based, KARPAS-299.
A short description of series [3]: Oral bioavailability in Sprague-Dawley rat. Type of series: ADME, organism-based. The following applies: in vivo.
Series [4] concerns Mus musculus. Nature of the series: Toxicity in SCID mouse assessed as weight loss at 30 mg/kg, po bid. The format is organism-based. Details: dose 30 mg/kg, route oral. The settings on record: in vivo.
Series [5] deals with Mus musculus. Nature of the series: Toxicity in SCID mouse assessed as weight loss at 55 mg/kg, po bid. Type of series: organism-based. Set-up: dose 55 mg/kg, route oral. The following applies: in vivo.
Series [6] is described as follows: Antitumor activity against human SUP-M2 cells xenografted into SCID mouse at 30 mg/kg, po bid. The format is functional. The settings on record: read-out: TGI.
Series [7] is described as follows: Antitumor activity against human SUP-M2 cells xenografted into SCID mouse at 55 mg/kg, po administered bid. Type of series: functional. The following applies: read-out: TGI.
In series [8] the test system is Mus musculus. Nature of the series: Toxicity in SCID mouse assessed as weight loss at 10 mg/kg, po bid. Type of series: organism-based. Set-up: dose 10 mg/kg, route oral. The settings on record: in vivo.
The nature of series [9]: Antitumor activity against human SUP-M2 cells xenografted into SCID mouse at 10 mg/kg, po bid. The format is functional. The following applies: read-out: TGI.
Series [10] in a line: Plasma concentration in human SUP-M2 cells xenografted SCID mouse at 55 mg/kg, po bid for 12 days measured after 2 hrs of final dose by LC/MS analysis. The format is ADME, organism-based. Set-up: dose 55 mg/kg, route oral.
The nature of series [11]: Drug level in human SUP-M2 cells xenografted SCID mouse tumor at 10 mg/kg, po bid for 12 days measured after 2 hrs of final dose by LC/MS analysis. Type of series: ADME, organism-based, Neoplasm. Set-up: dose 10 mg/kg, route oral. The settings on record: read-out: Drug uptake.
Series [12] is described as follows: Volume of distribution in SCID mouse at 1 mg/kg, iv. The format is ADME, organism-based. Details: dose 1 mg/kg, route intravenous. The following applies: in vivo.
Series [13] in a line: Plasma concentration in human SUP-M2 cells xenografted SCID mouse at 30 mg/kg, po measured after 12 hrs by LC/MS analysis. Type of series: ADME, organism-based. Details: dose 30 mg/kg, route oral.
Series [14] can be described thus: AUC in SCID mouse at 10 mg/kg, po. The format is ADME, organism-based. The settings on record: plasma. Set-up: dose 10 mg/kg, route oral.
Series [15] in a line: Drug level in human SUP-M2 cells xenografted SCID mouse tumor at 30 mg/kg, po bid for 12 days measured after 2 hrs of final dose by LC/MS analysis. Details: dose 30 mg/kg, route oral. The settings on record: read-out: Drug uptake. The format is ADME, organism-based, Neoplasm.
Series [16] in a line: Plasma concentration in human SUP-M2 cells xenografted SCID mouse at 30 mg/kg, po measured after 2 hrs by LC/MS analysis. Set-up: dose 30 mg/kg, route oral. The format is ADME, organism-based.
Series [17] in a line: Tmax in SCID mouse at 10 mg/kg, po. Set-up: dose 10 mg/kg, route oral. The settings on record: in vivo. The format is ADME, organism-based.
Series [18] can be described thus: Oral bioavailability in SCID mouse at 10 mg/kg. Type of series: ADME, organism-based. The settings on record: in vivo.
A short description of series [19]: Tmax in Sprague-Dawley rat at 5 mg/kg, po. The format is ADME, organism-based. Details: dose 5 mg/kg, route oral. The following applies: in vivo.
A short description of series [20]: AUC in Sprague-Dawley rat at 5 mg/kg, po. The format is ADME, organism-based. Details: dose 5 mg/kg, route oral. The settings on record: plasma.
Series [21] in a line: Volume of distribution in Sprague-Dawley rat at 1 mg/kg, iv. The format is ADME, organism-based. Set-up: dose 1 mg/kg, route intravenous. The settings on record: in vivo.
A short description of series [22]: Oral bioavailability in Sprague-Dawley rat at 5 mg/kg. The format is ADME, organism-based. The settings on record: in vivo.
A short description of series [23]: Apparent permeability from apical to basolateral side of human Caco2 cells. The following applies: Caco-2. The format is ADME, cell-based.
A further series has as its system KARPAS-299. The series is described as follows: Antiproliferative activity against human KARPAS299 cells by MTS assay. Type of series: functional, cell-based.
Series [24] can be described thus: AUC in Sprague-Dawley rat at 1 mg/kg, iv. Details: dose 1 mg/kg, route intravenous. The following applies: plasma. Type of series: ADME, organism-based.
Series [25] is described as follows: Drug level in human SUP-M2 cells xenografted SCID mouse tumor at 30 mg/kg, po after 6 hrs by LC/MS analysis. Type of series: ADME, organism-based, Neoplasm. Set-up: dose 30 mg/kg, route oral. The following applies: read-out: Drug uptake.
Series [26] can be described thus: Inhibition of NPM-ALK phosphorylation in SUP-M2 cells xenografted in SCID mouse at 30 mg/kg, po measured upto 12 hrs by immunoblotting. The settings on record: SUP-M2, 12 h. The format is functional.
A short description of series [27]: Plasma concentration in human SUP-M2 cells xenografted SCID mouse at 30 mg/kg, po measured after 6 hrs by LC/MS analysis. Type of series: ADME, organism-based. Set-up: dose 30 mg/kg, route oral.
A short description of series [28]: Drug level in human SUP-M2 cells xenografted SCID mouse tumor at 30 mg/kg, po after 2 hrs by LC/MS analysis. Details: dose 30 mg/kg, route oral. Type of series: ADME, organism-based, Neoplasm. The settings on record: read-out: Drug uptake.
Series [29] is described as follows: AUC in SCID mouse at 1 mg/kg, iv. The format is ADME, organism-based. Set-up: dose 1 mg/kg, route intravenous. The settings on record: plasma.
A short description of series [30]: Plasma concentration in human SUP-M2 cells xenografted SCID mouse at 30 mg/kg, po bid for 12 days measured after 2 hrs of final dose by LC/MS analysis. The format is ADME, organism-based. Set-up: dose 30 mg/kg, route oral.
Series [31] can be described thus: Drug level in human SUP-M2 cells xenografted SCID mouse tumor at 30 mg/kg, po after 24 hrs by LC/MS analysis. The following applies: read-out: Drug uptake. Type of series: ADME, organism-based, Neoplasm. Details: dose 30 mg/kg, route oral.
Series [32] in a line: Drug level in human SUP-M2 cells xenografted SCID mouse tumor at 30 mg/kg, po after 12 hrs by LC/MS analysis. Type of series: ADME, organism-based, Neoplasm. Details: dose 30 mg/kg, route oral. The settings on record: read-out: Drug uptake.
A short description of series [33]: Plasma concentration in human SUP-M2 cells xenografted SCID mouse at 10 mg/kg, po bid for 12 days measured after 2 hrs of final dose by LC/MS analysis. The format is ADME, organism-based. Set-up: dose 10 mg/kg, route oral.
Series [34] in a line: Antiproliferative activity against human SUP-M2 cells after 48 hrs by MTS assay. The format is functional, cell-based. The settings on record: SUP-M2, 48 h.
The nature of series [35]: Plasma concentration in human SUP-M2 cells xenografted SCID mouse at 30 mg/kg, po measured after 24 hrs by LC/MS analysis. The format is ADME, organism-based. Set-up: dose 30 mg/kg, route oral.

SMILES strings stand for the structures.

Chain of ALK tyrosine kinase receptor (Q9UM73 whole entry): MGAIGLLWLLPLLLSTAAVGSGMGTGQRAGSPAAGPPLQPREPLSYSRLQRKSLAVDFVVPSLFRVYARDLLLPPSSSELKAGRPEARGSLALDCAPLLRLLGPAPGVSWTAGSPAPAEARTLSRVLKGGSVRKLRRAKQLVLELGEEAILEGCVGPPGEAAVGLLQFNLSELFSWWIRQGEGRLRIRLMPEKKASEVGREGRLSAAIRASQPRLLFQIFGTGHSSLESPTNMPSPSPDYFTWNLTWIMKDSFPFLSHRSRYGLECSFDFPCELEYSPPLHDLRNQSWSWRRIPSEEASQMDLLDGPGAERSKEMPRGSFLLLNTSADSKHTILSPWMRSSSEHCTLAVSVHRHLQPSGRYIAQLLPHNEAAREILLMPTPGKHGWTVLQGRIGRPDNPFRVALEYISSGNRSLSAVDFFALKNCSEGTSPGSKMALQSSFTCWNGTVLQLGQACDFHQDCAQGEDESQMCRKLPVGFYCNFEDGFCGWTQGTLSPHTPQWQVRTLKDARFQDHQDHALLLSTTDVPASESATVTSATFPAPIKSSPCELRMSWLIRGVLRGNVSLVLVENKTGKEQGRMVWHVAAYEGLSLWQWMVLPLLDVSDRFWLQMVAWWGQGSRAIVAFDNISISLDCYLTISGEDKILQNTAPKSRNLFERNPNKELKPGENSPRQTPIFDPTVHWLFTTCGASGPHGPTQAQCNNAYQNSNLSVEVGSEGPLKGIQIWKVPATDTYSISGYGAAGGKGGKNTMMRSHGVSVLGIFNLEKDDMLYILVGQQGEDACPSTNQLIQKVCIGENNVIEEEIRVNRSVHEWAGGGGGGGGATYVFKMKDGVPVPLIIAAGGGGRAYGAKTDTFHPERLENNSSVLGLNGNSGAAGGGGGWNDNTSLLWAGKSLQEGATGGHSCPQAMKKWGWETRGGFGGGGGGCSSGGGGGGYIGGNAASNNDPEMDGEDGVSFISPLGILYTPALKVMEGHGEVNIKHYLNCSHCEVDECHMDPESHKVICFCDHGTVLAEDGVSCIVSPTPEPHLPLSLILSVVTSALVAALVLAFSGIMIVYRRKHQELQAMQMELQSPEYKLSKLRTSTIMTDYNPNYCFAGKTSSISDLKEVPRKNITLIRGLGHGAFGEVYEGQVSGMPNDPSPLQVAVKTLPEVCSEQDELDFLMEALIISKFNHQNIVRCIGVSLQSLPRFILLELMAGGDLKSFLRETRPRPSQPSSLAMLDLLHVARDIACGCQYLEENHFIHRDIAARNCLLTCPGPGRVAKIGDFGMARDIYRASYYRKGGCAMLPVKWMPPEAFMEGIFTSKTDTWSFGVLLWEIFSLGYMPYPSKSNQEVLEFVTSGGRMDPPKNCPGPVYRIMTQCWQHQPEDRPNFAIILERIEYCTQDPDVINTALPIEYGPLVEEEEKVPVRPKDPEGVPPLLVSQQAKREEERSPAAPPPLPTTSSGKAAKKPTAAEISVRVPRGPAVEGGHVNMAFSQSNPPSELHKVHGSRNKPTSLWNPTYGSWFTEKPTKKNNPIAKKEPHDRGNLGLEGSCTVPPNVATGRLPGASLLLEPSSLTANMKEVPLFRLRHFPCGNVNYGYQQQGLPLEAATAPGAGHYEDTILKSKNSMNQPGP
Chain of NPM/ALK (Nucleophosmin/ALK tyrosine kinase receptor) (Q9UM73 whole entry): as above
Chain of NPM/ALK (Nucleophosmin/ALK tyrosine kinase receptor) (P06748 whole entry, further chain): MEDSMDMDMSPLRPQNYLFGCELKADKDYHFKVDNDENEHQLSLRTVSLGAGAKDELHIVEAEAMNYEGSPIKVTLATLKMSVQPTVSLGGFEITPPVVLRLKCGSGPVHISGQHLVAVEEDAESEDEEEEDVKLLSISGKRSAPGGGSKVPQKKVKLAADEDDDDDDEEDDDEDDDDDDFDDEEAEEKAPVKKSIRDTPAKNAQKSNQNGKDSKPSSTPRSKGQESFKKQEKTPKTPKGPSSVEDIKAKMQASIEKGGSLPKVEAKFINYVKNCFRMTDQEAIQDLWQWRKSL
Chain of Insulin receptor (P06213 28-758 limits assumed): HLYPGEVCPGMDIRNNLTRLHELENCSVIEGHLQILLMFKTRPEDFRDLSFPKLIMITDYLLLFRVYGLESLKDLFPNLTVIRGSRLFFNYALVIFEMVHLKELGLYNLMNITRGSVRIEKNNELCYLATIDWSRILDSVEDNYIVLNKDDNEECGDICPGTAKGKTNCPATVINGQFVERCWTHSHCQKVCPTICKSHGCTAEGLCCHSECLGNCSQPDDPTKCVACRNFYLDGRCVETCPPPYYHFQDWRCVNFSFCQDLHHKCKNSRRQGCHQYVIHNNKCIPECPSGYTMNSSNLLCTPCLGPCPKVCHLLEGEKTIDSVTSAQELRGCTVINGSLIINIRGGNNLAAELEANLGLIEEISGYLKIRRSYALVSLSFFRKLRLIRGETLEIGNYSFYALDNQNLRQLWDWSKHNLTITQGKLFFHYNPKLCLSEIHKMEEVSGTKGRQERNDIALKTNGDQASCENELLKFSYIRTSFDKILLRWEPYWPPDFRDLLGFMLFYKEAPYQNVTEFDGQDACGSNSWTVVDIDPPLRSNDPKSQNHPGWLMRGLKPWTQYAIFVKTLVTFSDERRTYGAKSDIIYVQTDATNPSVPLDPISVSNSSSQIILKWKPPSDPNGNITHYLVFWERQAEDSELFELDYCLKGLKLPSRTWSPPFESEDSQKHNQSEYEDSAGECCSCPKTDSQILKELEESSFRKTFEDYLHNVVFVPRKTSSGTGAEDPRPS
Chain of Insulin receptor (P06213 763-1382 limits assumed): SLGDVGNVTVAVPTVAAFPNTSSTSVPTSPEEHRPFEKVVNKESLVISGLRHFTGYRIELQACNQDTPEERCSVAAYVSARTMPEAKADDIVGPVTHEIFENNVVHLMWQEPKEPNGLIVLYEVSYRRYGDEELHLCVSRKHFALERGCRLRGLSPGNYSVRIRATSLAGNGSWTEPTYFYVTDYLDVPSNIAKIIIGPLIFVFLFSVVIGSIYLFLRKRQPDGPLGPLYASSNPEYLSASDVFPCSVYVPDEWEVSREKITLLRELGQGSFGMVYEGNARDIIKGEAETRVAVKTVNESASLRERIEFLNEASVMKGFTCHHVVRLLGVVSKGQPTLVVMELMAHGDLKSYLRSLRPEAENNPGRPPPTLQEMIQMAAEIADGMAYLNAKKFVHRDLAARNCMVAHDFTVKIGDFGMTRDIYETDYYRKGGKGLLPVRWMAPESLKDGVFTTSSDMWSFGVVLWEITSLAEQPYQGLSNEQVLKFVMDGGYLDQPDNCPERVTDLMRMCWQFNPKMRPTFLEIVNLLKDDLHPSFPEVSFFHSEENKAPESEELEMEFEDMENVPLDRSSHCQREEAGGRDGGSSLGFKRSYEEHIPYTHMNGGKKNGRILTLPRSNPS

As to `CN1CCN(c2ccc(Nc3ncc4ccc(-c5ccccc5NS(C)(=O)=O)n4n3)cc2)CC1`, the concentration for half-maximal inhibition (IC50) came out at 1870 nM at Insulin receptor and 260 nM in series [1].

`COc1cc(N2CCN(C)CC2)ccc1Nc1ncc2ccc(-c3ccccc3OC)n2n1`: the IC50 against Insulin receptor was 391 nM; in series [2] it was 100 nM; in [1], 9 nM.

Regarding `COc1cc(N2CCN(C[C@H](C)O)CC2)ccc1Nc1ncc2ccc(-c3ccccc3OC)n2n1`, the bioavailability in series [3] was 8%. In addition, the IC50 at Insulin receptor was 206 nM; in series [2], 100 nM; in series [1], 5 nM.

With `COc1cc(N2CCN(C[C@@H](C)O)CC2)ccc1Nc1ncc2ccc(-c3ccccc3OC)n2n1`, in series [3], the bioavailability turned out to be 6%. Moreover, the values for the IC50 (against Insulin receptor; in series [2]; in series [1]) were 160 nM, 80 nM and 3.8 nM, respectively.

In turn, `COc1cc(N2CCN(N3CCOCC3)CC2)ccc1Nc1ncc2ccc(-c3ccccc3OC)n2n1` returned a bioavailability in series [3] of 34%. Also, the 50% inhibitory concentration (IC50) against Insulin receptor turned out to be 357 nM; in series [2] it was 85 nM; in [1] it was 9 nM. The Activity entry in the series with Mus musculus [4], with Mus musculus [5] and in the series with Mus musculus [8] was “Non-toxic” in each case. The inhibition in vivo at 30 mg/kg in series [6] came out at 60%. Further, the inhibition in vivo at 55 mg/kg in [7] is 98%.

Take `COc1cc(N2CCN(C)CC2)ccc1Nc1ncc2ccc(-c3ccccc3N(C)S(C)(=O)=O)n2n1`: the IC50 on Insulin receptor stood at 934 nM; in [2], 200 nM; in series [1], 9 nM.

In the case of `COc1cc(N2CCN(C[C@H](C)O)CC2)ccc1Nc1ncc2ccc(-c3ccccc3N(C)S(C)(=O)=O)n2n1`, the inhibition in vivo at 10 mg/kg in series [9] is 35%. The concentration at 2 h was 2890 ng/mL in [10]; 1530 ng/g in [11]; 3120 ng/g in [15]; 2160 ng/mL in series [16]; 1440 ng/g in series [28]; 1580 ng/mL in [30]. In [33], this compound had a concentration at 2 h of 516 ng/mL. Further, the bioavailability turned out to be 38% in series [3], 36% in series [18] and 38% in series [22]. Further, the distribution volume (Vd) was found to be 2.1 L/kg in series [12] and 3.3 L/kg in series [21]. Moreover, the results for the concentration at 12 h in series [13] and in [32] were 155 ng/mL and 235 ng/g, respectively. The AUC in series [14] stood at 2520 ng·h/mL; in series [20], 610 ng·h/mL; in series [24], 343 ng·h/mL; in series [29], 661 ng·h/mL. Also, the figures for the Tmax in series [17] and in series [19] were 1 h and 2 h, respectively. Further, in series [23], the Papp A→B was found to be 20.3 ×10⁻⁶ cm/s. In addition, the IC50 in the series with KARPAS-299 came out at 477 nM; in series [34], 87 nM. In addition, the inhibition in vivo at 30 mg/kg in series [6] was found to be 81%; in series [26] it was 75%. Also, the figures for the concentration at 6 h in series [25] and in series [27] were 792 ng/g and 950 ng/mL, respectively. In addition, the concentration at 24 h in [31] was below 30 ng/g; in series [35], below 10 ng/mL. For the same compound, the inhibition in vivo at 55 mg/kg in [7] was 98%.

In the case of `COc1cc(N2CCN(C[C@@H](C)O)CC2)ccc1Nc1ncc2ccc(-c3ccccc3N(C)S(C)(=O)=O)n2n1`, the bioavailability in series [3] amounted to 41%.

`COc1cc(N2CCC(N3CCOCC3)CC2)ccc1Nc1ncc2ccc(-c3ccccc3N(C)S(C)(=O)=O)n2n1`: in series [3], the bioavailability was 47%. The IC50 is 809 nM against Insulin receptor, 50 nM in [2] and 7 nM in [1]. For the same compound, the Activity entry in the series on Mus musculus [4], in the series on Mus musculus [5] and with Mus musculus [8] was “Non-toxic” in each case. In addition, the inhibition in vivo at 30 mg/kg in [6] was 50%. Moreover, in [7], the inhibition in vivo at 55 mg/kg came out at 96%.

Values taken from ChEMBL document CHEMBL1821719, “2,7-disubstituted-pyrrolo[2,1-f][1,2,4]triazines: new variant of an old template and application to the discovery of anaplastic lymphoma kinase (ALK) inhibitors with in vivo antitumor activity” (J Med Chem, 2011).
